Legend:
Format in all cases: in vivo
Echinochloa crus-galli = experiment: Paddy herbicidal activity test; conditions: irrigated paddy pot, treated at 3.5 leaf stage of Echinochloa crus-galli, 30 days
Method: (§1) Rice paddy soil was filled into a 1/10000 are pot followed by the addition of suitable amounts of water and chemical fertilizer, kneading, seeding with Echinochloa crus-galli, Monochoria vaginalis and Scirpus juncoides and maintaining in an irrigated state at a water depth of 3 cm. Wettable powder of Target Compound (I) shown in Table 1 prepared in compliance with the preparation examples were diluted with a suitable amount of water, rice plants in the 2.0 leaf stage were transplanted during 3.5 leaf stage of Echinochloa crus-galli, and treated by dropping in chemical in the prescribed amount per are using a pipette. After treating for 30 days in a glass greenhouse at an average atmospheric temperature of 30° C., the herbicidal efficacy thereof was investigated. Evaluation of herbicidal efficacy was carried out by comparing growth inhibition rate (%) with an untreated group, while evaluation of phytotoxicity was carried out by comparing growth inhibition rate (%) with the state of a complete eradication group, and were evaluated at 11 levels indicated below. [table]

Monochoria vaginalis = experiment: Paddy herbicidal activity test; conditions: irrigated paddy pot, 30 days
Method: as §1

Scirpus juncoides = experiment: Paddy herbicidal activity test; conditions: irrigated paddy pot, 30 days
Method: as §1

Rice plants = experiment: Paddy herbicidal activity test, phytotoxicity to transplanted rice; conditions: rice transplanted at 2.0 leaf stage, 30 days
Method: as §1

Amaranthus retroflexus [1] = experiment: Farming soil treatment test; conditions: soil surface spray prior to weed growth, 30 days
Method: (§2) Evaluation of herbicidal efficacy was carried out by comparing growth inhibition rate (%) with an untreated group, while evaluation of phytotoxicity was carried out by comparing growth inhibition rate (%) with the state of a complete eradication group, and were evaluated at 11 levels indicated below. [table] Field soil was filled into a 1/6000 are pot followed by seeding with Digitaria ciliaris, Chenopodium album and Amaranthus retroflexus and covering with soil. Wettable powder of compounds of formula (I) shown in Table 1 prepared in compliance with the preparation examples were diluted with water to the prescribed amount of chemical and uniformly sprayed onto each soil surface layer using 10 liters of sprayed water per are prior to weed growth following seeding. After treating for 30 days in a glass greenhouse at an average atmospheric temperature of 30° C., the herbicidal efficacy thereof was investigated. Evaluation of herbicidal efficacy was carried out in the same manner as the above-mentioned Test Example 1.

Chenopodium album [2] = experiment: Farming soil treatment test; conditions: soil surface spray prior to weed growth, 30 days
Method: as §2

Digitaria ciliaris [3] = experiment: Farming soil treatment test; conditions: soil surface spray prior to weed growth, 30 days
Method: as §2

Amaranthus retroflexus [4] = experiment: Weed foliar treatment test; conditions: foliar spray, 3 weeks
Method: (§3) Evaluation of herbicidal efficacy was carried out by comparing growth inhibition rate (%) with an untreated group, while evaluation of phytotoxicity was carried out by comparing growth inhibition rate (%) with the state of a complete eradication group, and were evaluated at 11 levels indicated below. [table] Soil was filled into a 1/6000 are pot followed by seeding with Digitaria ciliaris, Chenopodium album and Amaranthus retroflexus, covering with soil, and cultivating in a glass greenhouse at an average atmospheric temperature of 25° C. Wettable powder of Target Compound (I) shown in Table 1 prepared in compliance with the preparation examples were diluted with water to the prescribed amount of chemical and uniformly sprayed onto the weeds using 15 liters of sprayed water per are when Digitaria ciliaris had grown to the 1.0 to 2.0 leaf stage. After treating for 3 weeks in a glass greenhouse at an average atmospheric temperature of 25° C., the herbicidal efficacy thereof was investigated, Evaluation of herbicidal efficacy was carried out in the same manner as the above-mentioned Test Example 1.

Chenopodium album [5] = experiment: Weed foliar treatment test; conditions: foliar spray, 3 weeks
Method: as §3

Digitaria ciliaris [6] = experiment: Weed foliar treatment test; conditions: foliar spray at 1.0 to 2.0 leaf stage of Digitaria ciliaris, 3 weeks
Method: as §3

Row | Structure (SMILES) | herbicidal efficacy (growth inhibition rate level) Echinochloa crus-galli (Echinochloa crus-galli; 1g a.i./10a) | herbicidal efficacy (growth inhibition rate level) Echinochloa crus-galli (Echinochloa crus-galli; 5g a.i./10a) | herbicidal efficacy (growth inhibition rate level) Monochoria vaginalis (Monochoria vaginalis; 1g a.i./10a) | herbicidal efficacy (growth inhibition rate level) Monochoria vaginalis (Monochoria vaginalis; 5g a.i./10a) | herbicidal efficacy (growth inhibition rate level) Scirpus juncoides (Scirpus juncoides; 1g a.i./10a) | herbicidal efficacy (growth inhibition rate level) Scirpus juncoides (Scirpus juncoides; 5g a.i./10a) | phytotoxicity (growth inhibition rate level) Rice plants (Rice plants; 1g a.i./10a) | phytotoxicity (growth inhibition rate level) Rice plants (Rice plants; 5g a.i./10a) | herbicidal efficacy (growth inhibition rate level) Amaranthus retroflexus (Amaranthus retroflexus [1]; 5g a.i./10a) | herbicidal efficacy (growth inhibition rate level) Amaranthus retroflexus (Amaranthus retroflexus [1]; 10g a.i./10a) | herbicidal efficacy (growth inhibition rate level) Chenopodium album (Chenopodium album [2]; 5g a.i./10a) | herbicidal efficacy (growth inhibition rate level) Chenopodium album (Chenopodium album [2]; 10g a.i./10a) | herbicidal efficacy (growth inhibition rate level) Digitaria ciliaris (Digitaria ciliaris [3]; 5g a.i./10a) | herbicidal efficacy (growth inhibition rate level) Digitaria ciliaris (Digitaria ciliaris [3]; 10g a.i./10a) | herbicidal efficacy (growth inhibition rate level) Amaranthus retroflexus (Amaranthus retroflexus [4]; 5g a.i./10a) | herbicidal efficacy (growth inhibition rate level) Amaranthus retroflexus (Amaranthus retroflexus [4]; 10g a.i./10a) | herbicidal efficacy (growth inhibition rate level) Chenopodium album (Chenopodium album [5]; 5g a.i./10a) | herbicidal efficacy (growth inhibition rate level) Chenopodium album (Chenopodium album [5]; 10g a.i./10a) | herbicidal efficacy (growth inhibition rate level) Digitaria ciliaris (Digitaria ciliaris [6]; 5g a.i./10a) | herbicidal efficacy (growth inhibition rate level) Digitaria ciliaris (Digitaria ciliaris [6]; 10g a.i./10a)
1 | N#Cc1cnn(-c2nn3c(c2Br)CCCC3)c1N(CC1CC1)C(=O)C(F)(F)F [Compound 148] | 8 (8: 80% to less than 90%) | 10 (10: 100%) | 7 (7: 70% to less than 80%) | 9 (9: 90% to less than 100%) | 7 (7: 70% to less than 80%) | 9 (9: 90% to less than 100%) | 0 (0 (exponent): 0% to less than 10% (growth inhibition rate)) | 0 (0 (exponent): 0% to less than 10% (growth inhibition rate)) | 10 (10: 100%) | 10 (10: 100%) | 10 (10: 100%) | 10 (10: 100%) | 10 (10: 100%) | 10 (10: 100%) | 10 (10: 100%) | 10 (10: 100%) | 10 (10: 100%) | 10 (10: 100%) | 10 (10: 100%) | 10 (10: 100%)
2 | N#Cc1cnn(-c2nn3c(c2Cl)CCCC3)c1NCC1CC1(F)F (stereo not drawn) [Compound 185] | 10 (10: 100%) | 10 (10: 100%) | 9 (9: 90% to less than 100%) | 9 (9: 90% to less than 100%) | 10 (10: 100%) | 10 (10: 100%) | 0 (0 (exponent): 0% to less than 10% (growth inhibition rate)) | 1 (1: 10% to less than 20%) | 10 (10: 100%) | 10 (10: 100%) | 10 (10: 100%) | 10 (10: 100%) | 10 (10: 100%) | 10 (10: 100%) | 10 (10: 100%) | 10 (10: 100%) | 10 (10: 100%) | 10 (10: 100%) | 10 (10: 100%) | 10 (10: 100%)
3 | N#Cc1cnn(-c2nn3c(c2Cl)CCCC3)c1N(CC1CC1(F)F)C(=O)C(F)(F)F (stereo not drawn) [Compound 186] | 10 (10: 100%) | 10 (10: 100%) | 9 (9: 90% to less than 100%) | 9 (9: 90% to less than 100%) | 9 (9: 90% to less than 100%) | 10 (10: 100%) | 0 (0 (exponent): 0% to less than 10% (growth inhibition rate)) | 1 (1: 10% to less than 20%) | 10 (10: 100%) | 10 (10: 100%) | 10 (10: 100%) | 10 (10: 100%) | 10 (10: 100%) | 10 (10: 100%) | 10 (10: 100%) | 10 (10: 100%) | 10 (10: 100%) | 10 (10: 100%) | 10 (10: 100%) | 10 (10: 100%)

Reference: patent US9556183B2, “Substituted pyrazolylpyrazole derivative and use of same as herbicide” (KYOYU AGRI CO., LTD., priority 2013, dated 2017)
